Assay results as given in patent publication US6834238B1, “Method for identifying optical contrast enhancing agents” (Cytoscan Sciences LLC, priority 1998, dated 2004).

How the values were obtained:
[1] = system: acute rat hippocampal slice; assay: stimulation-evoked afterdischarge, extracellular field recordings in hippocampal slice; assay type: cell-based
Description: Sprague-Dawley rats (male and female; 25 to 35 days old) were prepared as described in Aghajanian, A. K. and Rasmussen, K., Synapse 31:331, 1989; and Buckmaster, P. S., Strowbridge, B. W., Schwartzdroin, P. A., J. Neurophysiol. 70:1281, 1993. In most hippocampal slice experiments, simultaneous extracellular field electrode recordings were obtained from CA1 and CA3 areas. For stimulation-evoked afterdischarge (13 slices, 8 animals), the concentration of Mg^2+ in the bathing medium was reduced to 0.9 mM. A bipolar tungsten stimulating electrode was placed on the Schaffer collaterals to evoke synaptically driven field responses in CA1; stimuli consisted to 100 to 300-μs-duration pulses at an intensity of four times population-spike threshold. Afterdischarges were evoked by a 2-s train of such stimuli delivered at 60 Hz. […] In all treatments, perfusion with furosemide-containing medium was begun after a consistent level of bursting had been established.
FIG. 2A1 illustrates that two seconds of electrical stimulation at 60 Hz elicited afterdischarge activity. […] The color bar indicates increasing magnitude of activity-evoked optical changes from the bottom to the top of the bar. The region of maximum optical change (red, yellow) corresponds to the apical and basal dendritic regions of CA1 on either side of the stimulating electrode. FIGS. 2B1-2BC illustrate responses to electrical stimulation following 20 minutes of perfusion with medium containing 2.5 mM furosemide.

[2] = system: acute rat hippocampal slice; assay: imaging of intrinsic optical signals in hippocampal slice; assay type: cell-based
Description: For imaging of intrinsic optical signals, the tissue was illuminated with a beam of white light (tungsten filament light and lens system; Dedotec USA, Lodi, N.J.) directed through the microscope condenser. The light was controlled and regulated (power supply: Lambda Electronics, Melville, N.Y.) to minimize fluctuations and filtered (695 nm long-pass) so that the slice was transilluminated with long wavelengths (red). Image frames were acquired with a charge-coupled device camera (Dage-MTI) at 30 Hz and were digitized at 8 bits with a spatial resolution of 512 by 480 pixels by means of an Imaging Technology Series 151 imaging system; gains and offsets of the camera-control box and the analog-to-digital board were adjusted to optimize the sensitivity of the system. […] To increase signal-to-noise ratio, an averaged image was composed from 16 individual image-frames, integrated over 0.5 s and averaged together. […] Pseudocolored images were calculated by subtracting the first control image from subsequently acquired images and assigned a color lookup table to the pixel values. For these images, usually a linear low-pass filter was used to remove high-frequency noise and a linear-histogram stretch was used to map the pixel values over the dynamic range of the system. All operations on these images were linear so that quantitative information was preserved. […]

[3] = system: hippocampal slices; assay: spontaneous interictal-like bursts in hippocampal slices; assay type: cell-based, rat
[4] = following treatment with furosemide, FIG. 3E

Structure (SMILES): NS(=O)(=O)c1cc(C(=O)O)c(NCc2ccco2)cc1Cl [furosemide]
- electrical afterdischarge activity ([1]; 20 minutes of perfusion with medium containing 2.5 mM furosemide, 2 s stimulation at 60 Hz, FIG. 2B2): blocked
- field response to the test pulse ([1]; 20 minutes of perfusion with medium containing 2.5 mM furosemide, FIG. 2B1): hyperexcitable field response (multiple population spikes)
- reversibility of the effect after washout ([1]; following 45 minutes of perfusion with normal bathing medium, FIGS. 2C1-2C3): restoration of the initial response pattern
- epileptiform activity during electrical stimulation [1, 4]: blocks
- stimulation-evoked optical changes ([2]; 20 minutes of perfusion with medium containing 2.5 mM furosemide, FIG. 2BC): blocked
- intrinsic optical signal (peak optical change during electrical stimulation) [2, 4]: blocks

Structure (SMILES): Nc1ccncc1 [4-AP]
- spontaneous interictal-like bursts, average ([3]; 200 to 300 μM 4-AP in bathing medium, 4 slices, 2 animals): 33 burst/min

Structure (SMILES): [K+] [K^+]
- spontaneous interictal-like bursts, average ([3]; 10 mM K+ in bathing medium, 6 slices, 4 animals): 81 bursts/min
